# Like-named read-outs stand apart in the source and are kept apart here. Where a SMILES comes first, the peptide text is derived from it. Bridges are numbered along the chain shown (N, C = ends). [ ]: non-standard residue; d: D form. R8 = C=CCCCCCC[C@@](C)(N)C(=O)O; S5 = C=CCCC[C@](C)(N)C(=O)O
# Tests used:
# V120Q/A327P mutant = test: Virus replication in PBMC, Env mutant; type: cell-based, HIV-1; conditions: PBMC from three donors, 30 μM peptide, RT activity
# [1] = system: HIV-1 V120Q/A327P Env mutant; type: cell-based
# HIV-1 pNL4-3 (WT) = type: cell-based
# HIV-1 CA = biological target: T1, HIV-1 CA (Human immunodeficiency virus type 1 group M subtype B, UniProt P12493); test: Turbidity-based in vitro CA assembly assay; type: biochemical; conditions: turbidity at 350 nm; for Effect on CA assembly, turbidity (in words): 50 mM NaPO4 pH 8.0; for initial rate of CA assembly: compound:CA ratio 2:1, mean ± standard deviation from three experiments, DMSO control 216 ± 6.23
# T1 construct: Wild-type HIV-1 CA was overexpressed and purified as previously described; made in house
# Protocol: The ability of stapled peptides to disrupt CA-CA interactions was also assessed using a turbidity-based in vitro CA assembly assay. This assay is based on the observation that the turbidity of a CA-containing solution increases in proportion to the extent of assembly.
# Wild-type HIV-1 CA was overexpressed and purified as previously described. […] Turbidity assays were carried out in triplicate using a Beckman spectrophotometer at a wavelength of 350 nm to monitor HIV-1 in vitro assembly conducted at ambient temperatures. Protein samples were prepared in an assembly buffer [50 mM NaPO4 pH 8.0]. In vitro assembly reactions were prepared with 250 μl of assembly buffer containing 60 μM protein. To catalyze CA assembly 250 μl of an assembly buffer containing 5M NaCl was added. The solution was mixed by agitation and transferred a cuvette for a total delay of 20 seconds. Assembly was monitored every 10 sec for the first min and every min thereafter for a total 10 min. Assembly reactions with stapled peptides were incubated in the assembly buffer for 10 min and then centrifuged for 1 min to separate any insoluble fractions before catalyzing assembly.
# HIV-1 pNL4-3 = test: Virus assembly and release assay, Gag processing; type: cell-based; conditions: 293T cells transfected with pNL4-3, peptide for 16–20 h, ratio of Pr55Gag to p24
# Protocol: This inhibition was specific to HIV-1 as the release of another lentivirus, equine infectious anemia virus (EIAV), was not inhibited. In this study we investigated whether i,i + 7 stapled CAI-derived peptides have any effect on virus release. 293T cells were transfected with the full-length HIV-1 molecular clone pNL4-3, treated with stapled peptides for 16–20 h, and metabolically labeled with [^35S]Met/Cys. The cell- and virus-associated proteins were immunoprecipitated with HIV-Ig.
# Figure 6 i + 7 stapled peptides have no effect on HIV-1 release, but impair Gag processing. […] Cells were metabolically labeled with [^35S]Met/Cys for 2 h. Cells were lysed and virions were collected by ultracentrifugation. Cell and virus lysates were immunoprecipitated with HIV-Ig and subjected to SDS-PAGE. Protein band intensities were quantified by phosphorimager analysis, and HIV-1 release was calculated as the amount of virion-associated p24 relative to total (cell- plus virion-associated) Gag. (b) Accumulation of unprocessed Gag in cells was measured by calculating the ratio of Pr55^Gag to p24 in cells. P values were calculated by Student’s t-test, with P < 0.05 considered significant. N = 3, ± SD.
# 293T cells, plated at 3 × 10^5 cells/well in 12 well plates, were transfected with the HIV-1 molecular clone pNL4-3 [69]. […] One day posttransfection, cells were metabolically labeled with [^35S]Met/Cys for 2 h. The labeled virions were pelleted in an ultracentrifuge, and the virus and cell lysates were immunoprecipitated with pooled sera from HIV-1-infected patients (HIV-Ig, obtained from the ARP) and subjected to SDS-PAGE. Protein band intensities were quantified by phosphorimager analysis, and virus release was calculated as the amount of virion-associated Gag as a fraction of total (cell- plus virion-associated) Gag synthesized during the metabolic labeling period. Accumulation of Pr55^Gag in cells was measured by calculating the ratio of Pr55^Gag to p24 (CA).
# WT HIV-1 (NL4-3) = type: cell-based
# WT NL4-3 [2] = test: Virus replication in PBMC, WT; type: cell-based, HIV-1; conditions: PBMC from three donors, 30 μM peptide, RT activity
# WT NL4-3 [3] = test: Spreading virus replication in Jurkat T-cell line, RT activity, WT; type: cell-based, HIV-1; conditions: Jurkat cells transfected with pNL4-3 (WT), 37.5 μM peptide
# [4] = biological target: tip of V3 loop (15-mer V3 tip peptide); test: ITC binding to 15-mer V3 tip peptide; parameters: species or system HIV-1; conditions: 90 μM 15-mer V3 tip peptide titrated into 4.5 μM peptide, single-site model
# Protocol: (§1) We also used ITC to measure the binding affinity of the stapled peptides to full-length cyclic V3 loop peptide.
# (§2) Full-length V3 peptide (Cat# 1840), cyclic V3 peptide (Cat# 1837) and 15-mer overlapping V3 peptides (Cat# 1832, 6282, 6283, 6284, 6285, 6287, 6288, 6289, 6290 and 6291, for amino acid sequence see HIV-1 Subtype B (MN) Env Peptides - Complete Set Cat# 6451) were obtained through the NIH ARP.
# (§3) For forward titration, 90 μM full-length V3 peptide, full-length cyclic V3 peptide or 90 μM 15-mer V3 peptides were titrated into 4.5 μM of stapled or linear peptides. Reference measurements were performed by titrating 90 μM full-length V3 peptide, full-length cyclic V3 peptide or 15-mer V3 peptide into buffer without peptide. For reverse titration, 90 μM stapled peptide was titrated into 4.5 μM full-length V3 peptide, full-length cyclic V3 peptide or […]. Reference measurements were performed by titrating 90 μM stapled peptide into buffer without peptide.
# [5] = system: N-terminal and C-terminal V3 loop peptides; test: ITC binding to N-terminal and C-terminal V3 loop peptides; parameters: species or system HIV-1; conditions: overlapping 15-mer V3 peptides
# Protocol: as §1, §2, §3
# [6] = 50 μM peptide during 2 h infection, TZM-bl cells, luciferase two days post-infection
molecule,measurement,setting,value
CC[C@H](C)[C@H](NC(C)=O)C(=O)N[C@@H](CO)C(=O)N[C@@H](Cc1ccccc1)C(=O)N[C@]1(C)CCCCCCC=CCCC[C@@](C)(C(=O)N[C@@H](CCC(=O)O)C(=O)N[C@@H](CC(=O)O)C(N)=O)NC(=O)[C@H](Cc2ccc(O)cc2)NC(=O)[C@H](Cc2ccc(O)cc2)NC(=O)[C@H](CC(=O)O)NC(=O)[C@H](CC(C)C)NC(=O)[C@H](CC(C)C)NC(=O)[C@H](CCC(=O)O)NC1=O [NYAD-66] (Ac-ISF[R8]ELLDYY[S5]ED-NH2; staple 4-11),virus replication (in words),V120Q/A327P mutant,showed some antiviral activity against the V120Q/A327P mutant
same,"fold reduction of virus infectivity, V120Q/A327P double mutant",[1]; [6],less than 2 fold
same,reduction in infectivity of virions produced from treated cells,"HIV-1 pNL4-3 (WT); 293T producer cells treated with 50 μM peptide for two days, RT-normalized virus on TZM-bl, luciferase",four-fold
same,"Effect on CA assembly, turbidity (in words)",HIV-1 CA,reduced the extent of CA assembly in a dose-dependent manner
same,initial rate of CA assembly,HIV-1 CA,166 ± 18.91 mOD/min
same,Cell penetration (in words),293T cells,penetrate cells less efficiently than NYAD-1
same,Accumulation of cell-associated Pr55Gag (in words),HIV-1 pNL4-3,modest accumulation of cell-associated Pr55^Gag
same,% toxicity at that dose (number in parenthesis),MT-2 cells,0%
same,CC 50 (μM ± SD) in MT-2,MT-2 cells,> 115 µM
same,"fold reduction of virus infectivity, WT",WT HIV-1 (NL4-3); [6],around 3 fold
same,virus replication (in words),WT NL4-3 [2],strongly inhibited replication of WT NL4-3 in PBMC
same,virus replication (in words),WT NL4-3 [3],significantly delayed
CC[C@H](C)[C@H](NC(C)=O)C(=O)N[C@@H](CO)C(=O)N[C@@H](Cc1ccccc1)C(=O)N[C@]1(C)CCCCCCC=CCCC[C@@](C)(C(=O)N[C@@H](CCC(=O)O)C(=O)N[C@@H](CC(=O)O)C(=O)N[C@@H](CCC(=O)O)C(N)=O)NC(=O)[C@H](Cc2ccc(O)cc2)NC(=O)[C@H](C)NC(=O)[C@H](CCC(N)=O)NC(=O)[C@H](CC(C)C)NC(=O)[C@H](Cc2c[nH]c3ccccc23)NC(=O)[C@H](CCC(=O)O)NC1=O [NYAD-67] (Ac-ISF[R8]EWLQAY[S5]EDE-NH2; staple 4-11),virus replication (in words),V120Q/A327P mutant,showed some antiviral activity against the V120Q/A327P mutant
same,"fold reduction of virus infectivity, V120Q/A327P double mutant",[1],~ 2.5 fold
same,reduction in infectivity of virions produced from treated cells,HIV-1 pNL4-3 (WT),two-log reduction in infectivity
same,"Effect on CA assembly, turbidity (in words)",HIV-1 CA,did not influence the rate or extent of CA assembly
same,initial rate of CA assembly,HIV-1 CA,205 ± 18.89 mOD/min
same,Cell penetration (in words),293T cells,penetrate cells less efficiently than NYAD-1
same,Accumulation of cell-associated Pr55Gag (in words),HIV-1 pNL4-3,modest accumulation of cell-associated Pr55^Gag
same,% toxicity at that dose (number in parenthesis),MT-2 cells,0%
same,CC 50 (μM ± SD) in MT-2,MT-2 cells,> 107.4 µM
same,"fold reduction of virus infectivity, WT",WT HIV-1 (NL4-3),> 40 fold
same,Kd,[4],8.92 ± 1.8 µM
same,virus replication (in words),WT NL4-3 [2],strongly inhibited replication of WT NL4-3 in PBMC
same,virus replication (in words),WT NL4-3 [3],completely blocked
same,binding to N-terminal and C-terminal V3 loop peptides (in words),[5],neither N-terminal nor C-terminal V3 loop peptides bind
"Ac-IRQGPKEPFRDYVDR-NH2 [NYAD-401, reference compound]","Effect on CA assembly, turbidity (in words)",HIV-1 CA,no observable effect on CA assembly
same,initial rate of CA assembly,HIV-1 CA,223 ± 32.5 mOD/min
Ac-ISF-R8-ELEDYY-S5-ESGS (sidechain bridge or staple) [NYAD-43],CC 50 (μM ± SD) in MT-2,MT-2 cells,>106.6 µM
Ac-ISF-R8-ELLDYY-S5-EKSGSKD-amide (sidechain bridge or staple) [NYAD-55],CC 50 (μM ± SD) in MT-2,MT-2 cells,>89.7 µM
Ac-ISF-R8-ELLDYY-S5-ESGSKKK-amide (sidechain bridge or staple) [NYAD-44],CC 50 (μM ± SD) in MT-2,MT-2 cells,17.2 ± 1.4 µM
Ac-ISF-R8-ELLRYY-S5-R-amide (sidechain bridge or staple) [NYAD-56],CC 50 (μM ± SD) in MT-2,MT-2 cells,16.4 ± 1.2 µM
Ac-ISF-R8-EWLQYY-S5-R-amide (sidechain bridge or staple) [NYAD-33],CC 50 (μM ± SD) in MT-2,MT-2 cells,9.2 ± 0.26 µM
Ac-ISF-R8-QLLDYY-S5-QSGSK-amide (sidechain bridge or staple) [NYAD-46],CC 50 (μM ± SD) in MT-2,MT-2 cells,10.6 ± 0.6 µM
Ac-ISFDELLDYYGESGS [NYAD-41],% FAM,"293T cells; FACS, 293T cells, 4 μM FAM-conjugated peptide, 20 h at 37°C, serum-free media, 0.25% Trypsin-EDTA 30 min",1.43%
Ac-R-R8-FAELLD-S5-YGESGS-amide (sidechain bridge or staple) [NYAD-63],CC 50 (μM ± SD) in MT-2,MT-2 cells,>113 µM
Ac-RRF-R8-ELLDYY-S5-ESGS-amide (sidechain bridge or staple) [NYAD-62],CC 50 (μM ± SD) in MT-2,MT-2 cells,15.4 ± 0.2 µM
Ac-RSF-R8-RLLDYY-S5-ESGS-amide (sidechain bridge or staple) [NYAD-61],CC 50 (μM ± SD) in MT-2,MT-2 cells,31.7 ± 1.4 µM
Ac-RSFE-R8-LLDYYG-S5-SGS-amide (sidechain bridge or staple) [NYAD-65],CC 50 (μM ± SD) in MT-2,MT-2 cells,>116 µM
Ac-SK-R8-ELLDYY-S5-ESGS-amide (sidechain bridge or staple) [NYAD-64],CC 50 (μM ± SD) in MT-2,MT-2 cells,>109 µM
IRF-R8-QLLNYY-S5-ESGS-amide (sidechain bridge or staple) [NYAD-58],CC 50 (μM ± SD) in MT-2,MT-2 cells,14.9 ± 1 µM
ISF-R8-ELLNYY-S5-ESGS-amide (sidechain bridge or staple) [NYAD-57],CC 50 (μM ± SD) in MT-2,MT-2 cells,39.6 ± 4.4 µM

# — article PMC3842668, “Dual-acting stapled peptides target both HIV-1 entry and assembly” (Retrovirology, 2013)
